Read-outs that look alike come from different tables or passages of the source.
Key:
L. major [1] = assay: ChEMBL dataset of pIC50 values against L. major used for the RF model (Table S1); assay type: cell-based, Leishmania major; note: call rule not given here
L. major [2] = system: L. major; design: method as in ChEMBL; settings: ref ChEMBL, cited from earlier work
[3] = Active/Inactive class assigned to ChemBL structures for Random forest model construction (Table S1)
[4] = ChemBL structures with pIC50 values used for Random forest model construction (Table S1)
[5] = Active/Inactive class assigned to the ChEMBL pIC50 value for Random forest model construction, ref ChEMBL
[6] = ChemBL structures with pIC50 values used for Random forest model construction, L. major

SMILES | Outcome (L. major [1]; [3]) | pIC50 Value (L. major [2]; [4]) | Outcome (L. major [1]; [5]) | pIC50 Value (L. major [2]; [6])
O=[N+]([O-])c1cccc(-c2nc3ccccc3[nH]2)c1 [CHEMBL475377] | Active | 5.47 | – | –
COc1ccc(-c2c(-c3ccccc3)nc3cnccn23)cc1 [CHEMBL3634351] | – | – | Inactive | 4.76
Clc1ccc2c(c1)Nc1ccccc1O2 [CHEMBL1801896] | – | – | Inactive | 4.16
C/C(=N/NC(N)=S)c1ccc(OCc2cn(-c3ccc(C(=O)O)cc3)nn2)cc1 [CHEMBL4169531] | – | – | Active | 5.13
COc1cc(C)cc2c1C(=O)C=C(C1=C(C)C(=O)c3ccc(O)c(OC)c3C1=O)C2=O [CHEMBL2071225] | Active | 10.28 | – | –
c1ccc(-c2nc3ccccn3c2-c2ccncc2)cc1 [CHEMBL2151870] | – | – | Active | 5.19
Cc1cccc2cc(/C=C/C(=O)c3ccc(I)s3)c(Cl)nc12 [CHEMBL1940871] | Active | 5.82 | – | –
Clc1cc(Cl)cc(-c2nc3ccccn3c2-c2ccccc2)c1 [CHEMBL2151989] | – | – | Inactive | 4.41
O=C(C(Cl)CCl)N1c2ccccc2Oc2ccccc21 (stereo not drawn) [CHEMBL3758248] | – | – | Active | 5.02
O=[N+]([O-])c1cccc(-c2nc3ccc([N+](=O)[O-])cc3[nH]2)c1 [CHEMBL1563210] | Active | 5.56 | – | –
CCC/C=C/C=C/c1nc2cc(OC)ccc2n2cccc12 [CHEMBL3260211] | Active | 5.55 | – | –
O=C(/C=C/c1ccc(-n2ccnc2)cc1)c1ccc(Cl)cc1 [CHEMBL569356] | Active | 5.53 | – | –
CC(=O)CCCCCCCCCC[C@H]1CC[C@@H](O)[C@@H](C)N1 [CHEMBL2262843] | – | – | Active | 5.27
Cc1cccc2cc(C3CC(c4ccc(Br)s4)=NN3)c(Cl)nc12 (stereo not drawn) [CHEMBL2236133] | Active | 5.64 | – | –
COC(=O)c1c(O)c(C#N)c2n(c1=O)CCc1cc(OC)c(OC)cc1-2 [CHEMBL1256930] | – | – | Inactive | 4.28
COc1cc(OC)c2c(C)[n+](-c3cccc(C)c3C)c(C)cc2c1.F[B-](F)(F)F [CHEMBL480823] | – | – | Inactive | 4.94
CNC(=N)c1ccc(N2CCN(c3nnc(-c4ccc([N+](=O)[O-])o4)s3)CC2)cc1.Cl [CHEMBL1783201] | – | – | Inactive | 4.64
O=C(CCCCl)N1c2ccccc2Oc2ccc(Cl)cc21 [CHEMBL3759213] | – | – | Inactive | 4.00
CC(=O)C1=C(CNc2ccc(C(=O)/C=C/c3cccc([N+](=O)[O-])c3)cc2)N(C)C(=O)NC1c1ccccc1 (stereo not drawn) [CHEMBL3786374] | Active | 5.88 | – | –
CCOc1ccc(N2C(=O)C(c3ccc(C)cc3)(c3ccc(C)cc3)C2c2cn(C)c3ccccc23)cc1 (stereo not drawn) [CHEMBL2071566] | Active | 5.90 | – | –
Cl.N=C(NCc1ccccc1)c1ccc(N2CCN(c3nnc(-c4ccc([N+](=O)[O-])o4)s3)CC2)cc1 [CHEMBL1783206] | – | – | Active | 5.05
COc1cc(OC)c2c(C)[n+](-c3ccc(C(C)C)cc3)c(C)cc2c1 [CHEMBL481022] | Active | 5.70 | – | –
O=[N+]([O-])c1ccc2nc(-c3ccc(Cl)cc3)[nH]c2c1 [CHEMBL1407741] | Active | 5.63 | – | –
COc1ccccc1C(=O)N/N=C/c1ccc(Br)c(F)c1 [CHEMBL2382032] | – | – | Inactive | 4.11
CC(c1ccccc1)N1CN(CC(=O)O)CSC1=S (stereo not drawn) [CHEMBL4286679] | – | – | Inactive | 4.51
C=C1CCC[C@@]2(C)CC3=C(C[C@@H]12)C(=O)C=CC3=O [CHEMBL401659] | – | – | Inactive | 4.99
Cc1ccc2cc(C3CC(c4cc(Cl)sc4Cl)=NN3)c(Cl)nc2c1 (stereo not drawn) [CHEMBL2236142] | Active | 5.75 | – | –

SMILES | Outcome (L. major [1]; [3]) | pIC50 Value (L. major [2]; [4]) | Outcome (L. major [1]; [5]) | pIC50 Value (L. major [2]; [6])
CCCCCNCc1ccc(Nc2c3ccccc3nc3ccccc23)cc1 [CHEMBL89683] | Active | 5.70 | – | –
C[C@H]1COC2=C1C(=O)C(=O)c1c2ccc2c1CCCC2(C)C [CHEMBL187460] | – | – | Inactive | 4.74
Clc1ccc2c(N3CCN(Cc4ccccc4)CC3)ccnc2c1 [CHEMBL1256765] | – | – | Inactive | 4.21
O=C(c1ccccc1Cl)N1CCN(c2nnc(-c3ccc([N+](=O)[O-])o3)s2)CC1 [CHEMBL458179] | – | – | Inactive | 4.97
C/C=C/C=C/C=C/c1nc2ccccc2n2cccc12 [CHEMBL3260218] | Active | 5.92 | – | –
Fc1ccccc1-c1nc2ccccn2c1-c1ccccc1 [CHEMBL2151876] | – | – | Inactive | 4.41
COc1cc(/C=N\NC(N)=S)ccc1OCc1cn(CC(=O)c2ccc(Br)cc2)nn1 [CHEMBL4159895] | – | – | Active | 5.29
COc1ccccc1C(=O)N/N=C/c1ccc(OC)c(O)c1I [CHEMBL2382052] | – | – | Inactive | 4.20
c1ccc(-c2nc3cnccn3c2-c2ccccc2)cc1 [CHEMBL3634350] | – | – | Inactive | 4.58
CCn1nc(C)cc1-c1nnc2sc(-c3ccc(C)cc3)nn12 [CHEMBL1256826] | – | – | Inactive | 4.05
CCC(C)NC(=N)c1ccc(N2CCN(c3nnc(-c4ccc([N+](=O)[O-])o4)s3)CC2)cc1.Cl (stereo not drawn) [CHEMBL1783205] | – | – | Inactive | 4.48
COc1ccccc1-c1nnc(-c2ccc(C(=O)N/N=C/c3ccc(Cl)cc3Cl)cc2)o1 [CHEMBL4068809] | – | – | Active | 5.29
COc1ccccc1-c1nnc(-c2ccc(C(=O)N/N=C/c3ccccc3Cl)cc2)o1 [CHEMBL4088386] | – | – | Inactive | 4.54
COCCOC(=O)C1=C(C)NC(C)=C(C(=O)OC/C=C/c2ccccc2)C1c1cccc([N+](=O)[O-])c1 (stereo not drawn) [CHEMBL452076] | – | – | Inactive | 4.67
Cc1cccc2oc(=O)c3c(c12)O[C@H](C)[C@@]3(C)CC(=O)[C@@H]1OC1(C)C [CHEMBL517042] | – | – | Inactive | 4.87
N#Cc1ccc(N2CCN(c3nnc(-c4ccc([N+](=O)[O-])o4)s3)CC2)cc1 [CHEMBL1783198] | – | – | Inactive | 3.98
COc1cc(OC)c2c(C)[n+](-c3ccc(C#N)cc3)c(C)cc2c1.O=C([O-])C(F)(F)F [CHEMBL481906] | – | – | Inactive | 4.00
COc1c(O)ccc2c1C(=O)C(C)=CC2=O [CHEMBL2071233] | – | – | Inactive | 4.03
O=[N+]([O-])c1cccc(-c2c(-c3ccc(F)cc3)nc3ccccn23)c1 [CHEMBL2151874] | – | – | Inactive | 4.00
Cc1ccc(C2(c3ccc(C)cc3)C(=O)N(c3ccccc3)C2c2cn(C)c3ccccc23)cc1 (stereo not drawn) [CHEMBL2071564] | Active | 5.91 | – | –
COc1cc(OC)c2c(C)[n+](-c3ccc(Br)cc3)c(C)cc2c1.F[B-](F)(F)F [CHEMBL520594] | – | – | Inactive | 4.71
COc1cccc(/C=N/NC(=O)c2ccc(-c3nnc(-c4ccccc4OC)o3)cc2)c1 [CHEMBL4098544] | – | – | Inactive | 4.10
CC(=O)C1=C(C)N(C)C(=O)NC1c1ccccc1 (stereo not drawn) [CHEMBL3785882] | Active | 5.59 | – | –
COc1ccc(C(=O)/C=C/c2ccc(-n3ccnc3)cc2)cc1 [CHEMBL570461] | Active | 5.49 | – | –
Fc1ccc(-c2nc3c(NCCN4CCOCC4)nccn3c2-c2ccncc2)cc1 [CHEMBL3634368] | – | – | Inactive | 4.78
O=[N+]([O-])c1ccc(-c2nnc(NCc3cn(Cc4c(F)cccc4Cl)nn3)s2)o1 [CHEMBL1951532] | – | – | Inactive | 4.76
C/C=C/C=C/c1nc2cc(OC)ccc2n2cccc12 [CHEMBL3260207] | Active | 5.52 | – | –
